From the NIST ThermoML archive (doi:10.1016/j.fluid.2007.07.017)
± gives the expanded uncertainty stated by the source.

Assay: xn = mol fraction of the nth substance listed
Conditions: Liquid, Vibrating tube method

C=C [ethene] + CCCCO
Conditions | mass density [kg/m3]
283.65 K, x1 = 0.17 | 781.4 ± 0.6
283.65 K, x1 = 0.224 | 767.7 ± 0.5
283.65 K, x1 = 0.322 | 743.7 ± 0.6
283.65 K, x1 = 0.401 | 718.9 ± 0.7
283.65 K, x1 = 0.47 | 695.8 ± 0.8
283.65 K, x1 = 0.545 | 660.9 ± 1
283.65 K, x1 = 0.98 | 323.2 ± 1.2
283.65 K, x1 = 0.99 | 296.6 ± 1.2
283.65 K, x1 = 0.994 | 287 ± 1.2
290.8 K, x1 = 0.206 | 768.3 ± 0.6
290.8 K, x1 = 0.265 | 752.1 ± 0.6
290.8 K, x1 = 0.339 | 732 ± 0.6
290.8 K, x1 = 0.43 | 707.5 ± 0.8
290.8 K, x1 = 0.528 | 664.6 ± 0.9
290.8 K, x1 = 0.622 | 624.4 ± 1
290.8 K, x1 = 0.655 | 601.6 ± 1.2
290.8 K, x1 = 0.691 | 585 ± 1.8
290.8 K, x1 = 0.745 | 527.5 ± 2.4
